Values of other authors, collected in patent US6803060B2, “Composition to boost libido” (priority 2000, dated 2004).

How the values were obtained:
corpus cavernosum = conditions: for erection after injection into the corpus cavernosum: injected directly into the corpus cavernosum with a hypodermic needle; for duration of erection after injection: intracavernosal injection, appropriate dose
impotentia erectionis = conditions: buccal, 100 I.U. three times a day for 14 days
[1] = tested on: male erectile dysfunction; conditions: alone or in combination with papaverine
impotent men = conditions: ingestion

Row | Structure (SMILES) | erection after injection into the corpus cavernosum (corpus cavernosum) | also measured
1 | CCN(CC)CCOC(=O)C(Cc1cccc2ccccc12)CC1CCCO1 (mixture of isomers) [naftidrofuryl] | caused erection | –
2 | CN(C)CCCN1c2ccccc2CCc2ccccc21 [imipramine] | caused erection | –
3 | CC[C@H](C)[C@@H]1NC(=O)[C@H](Cc2ccc(O)cc2)NC(=O)[C@@H](N)CSSC[C@@H](C(=O)N2CCC[C@H]2C(=O)N[C@@H](CC(C)C)C(=O)NCC(N)=O)NC(=O)[C@H](CC(N)=O)NC(=O)[C@H](CCC(N)=O)NC1=O [oxytocin] | – | patients with improvement of impotentia erectionis (impotentia erectionis): 12 of the 16
4 | COc1ccc(Cc2nccc3cc(OC)c(OC)cc23)cc1OC [papaverine] | caused erection | duration of erection after injection (corpus cavernosum): unrelenting erection lasting for hours
5 | CC(COc1ccccc1)N(CCCl)Cc1ccccc1 (stereo not shown) [phenoxybenzamine] | caused erection | duration of erection after injection (corpus cavernosum): unrelenting erection lasting for hours
6 | Cc1ccc(N(CC2=NCCN2)c2cccc(O)c2)cc1 [phentolamine] | caused erection | –
7 | CCCCC[C@H](O)/C=C/[C@H]1[C@H](O)CC(=O)[C@@H]1CCCCCCC(=O)O [prostaglandin E1] | – | erectile response [1]: improved erectile response
8 | CC(=O)Oc1cc(C(C)C)c(OCCN(C)C)cc1C [thymoxamine] | caused erection | –
9 | COc1ccc(CCN(C)CCCC(C#N)(c2ccc(OC)c(OC)c2)C(C)C)cc1OC (stereo not shown) [verapamil] | caused erection | –
10 | COC(=O)[C@@H]1[C@H]2C[C@H]3c4[nH]c5ccccc5c4CCN3C[C@@H]2CC[C@@H]1O [yohimbine] | – | treated patients reporting complete satisfaction (impotent men): 5%; subjective improvement in erectile ability (impotent men; impotent men treated): 38%
